# How the values were obtained:
# [1] = test system: phospho-(S345)Chk1; assay: PBMC phospho-Chk1 immunofluorescence; type: in vivo, human; conditions: after 2-week dosing
# Description: PD sampling took place at baseline (within 7 days prior to dosing) and between days 15 and 22 of dosing (day 14 for intermittent dosing cohorts). PD samples included PBMCs and tumor biopsies. PBMCs were analyzed by immunofluorescence for γ^(S139)H2AX, p-^(S345)Chk1, and total Chk1, as described in Supplemental Methods. Paired tumor biopsies were formalin fixed and analyzed for nuclear p-^(S635)Rad50 and γH2AX by IHC.
# PBMCs were isolated from blood using BD Vacutainer® CPT™ Cell preparation tubes with sodium citrate (BD Biosciences, Wokingham, UK) and fixed with 4% formalin containing 1% Triton™ X-100 (Sigma-Aldrich, St. Louis, MO). […] A Carl Zeiss LSM 700 confocal laser scanning fluorescence microscope (Zeiss, Jena, Germany) was used to visualize and capture images of the PBMCs. Fluorescent nuclear intensity for phospho-(S345) and total Chk1 in individual PBMC cells were quantified using the IN Cell Investigator Developer Toolbox v1.9 software (GE Healthcare Biosciences, Piscataway, NJ). For the phospho(S345)- and total Chk1 assays: the raw data values (fluorescent nuclear intensity for PBMCs), the percentage change for phospho(S345) biomarker was calculated for each subject by comparing the levels measured at each post-dose time point to pre-dose levels measured at baseline. […]
# Peripheral blood was drawn into 8 mL EDTA tubes (Vacutainer, BD) and analyzed within 24 hours. […]
# [2] = test system: plasma cytokines; assay: Plasma cytokines, Bio-Plex Pro 27-plex; type: in vivo, human; conditions: after 2 weeks of treatment
# Description: DNA-Seq of tumor and matched buffy coats was either by whole-exome sequencing or a custom-designed panel targeting all exons of genes of interest for 173 genes, including potential markers of sensitivity to ATRi. ACK-lysed whole blood or PBMCs were stained for flow cytometry using 8 multicolor panels. Plasma cytokines were assessed using the Bio-Plex Pro 27-Plex Panel (Bio-Rad). See Supplemental Methods for full information.
# Plasma was taken from EDTA tubes (BD vacutainer) used for buffy coat or immune profiling samples. Plasma was removed, re-spun and aliquoted into 1.5 mL tubes and stored at -70 OC until analysis. Samples were run in duplicate using the Bio-Plex Pro Human Cytokine 27-plex panel (Bio-Rad) as per manufacturer’s instructions.
# Criteria for Dose Limiting Toxicity
# 1. Hematological toxicity
# 1. Grade 3 thrombocytopenia with bleeding
# 2. Grade 4 thrombocytopenia
# 3. Grade 4 neutropenia lasting >7 days in the absence of growth factor
# 4. Grade 4 neutropenia of any duration accompanied by fever ≥ 38.5°C and/or systemic infection
# 5. Any other grade ≥4 hematological toxicity
# 2. Cardiovascular toxicity
# 1. Clinically significant hypotension defined as an asymptomatic fall in systolic blood pressure more than 20mmHg to below 70mmHg persisting for at least 10 minutes
# 2. Symptomatic orthostatic fall in systolic blood pressure of more than 20mmHg compared to resting supine blood pressure
# 3. Prolongation of QTc >0.5 seconds (using an appropriate correction […]
# 3. Gastrointestinal/hepatic toxicity
# 1. ALT or AST >5 times ULN; ALP >5 times ULN with elevated gamma- GT
# [3] = test system: tumor biopsies; assay: Stromal TIL count (H&E) and PD-L1 IHC in tumor biopsies; type: in vivo, human
# From the text: Supplementary Pharmacodynamic methods
# Formalin fixed paraffin-embedded tumor samples were used. […]
# Quantification of tumor-infiltrating lymphocytes was done using a semi-automated method in QuPath (53). Scanned H&E sections were first segmented into tumor and stroma, using a random trees machine-learning classifier, for each tumor section. Nuclei were segmented using Stardist (54), then stromal nuclei were sorted by size (area <20 µm2) and circularity (>0.85), using small circular nuclei to approximate lymphocyte
# [4] = test system: ATR; conditions: preclinical; cited from earlier work
structure (smiles),measurement,setting,value
C[C@@H]1COCCN1c1cc(C2([S@](C)(=N)=O)CC2)nc(-c2cc[nH]c3nccc2-3)n1 [ceralasertib],p-Chk1 levels in PBMCs with treatment,[1],not consistent
same,Circulating CCL2 level,[2],increase
same,Circulating CCL4 level,[2],decrease
same,Circulating CCL5 level,[2],decrease
same,"Stromal TILs, paired samples",[3]; a responding patient (not in 3 nonresponders),appeared to increase
